Laboratory results from patent US4250097A, “Compositions for and a method of preventing diabetic complications” (Syntex (U.S.A.) Inc., priority 1978, dated 1981).

Experiments:
Aldose reductase = molecular target: T1, Aldose reductase (Oryctolagus cuniculus, UniProt P15122); assay: Aldose reductase inhibition, in vitro (loss of absorbance at 340 millimicrons, glyceraldehyde substrate, NADPH); type: biochemical, New Zealand rabbits (lens); settings: pH 6.0, 37° C; for inhibition at 10 µM: 1 × 10^-5 molar concentration of xanthone compound; for inhibition at 1 µM: 1 × 10^-6 molar concentration of xanthone compound; for inhibition at 100 µM: 1 × 10^-4 molar concentration of xanthone compound
T1 construct: Aldose reductase is isolated by homogenizing the lens in 3 volumes of water; from tissue; host or cells: lens of mature New Zealand rabbits
Experimental: In brief, a solution of the enzyme is added to an appropriately buffered solution containing glyceraldehyde. The loss of ultra violet absorbance at 340 millimicrons is indicative of the rate of reaction of the aldehyde with the enzyme as previously reported by Hayman and Kinoshita, (J. Biol. Chem: 240, 877, (1965)).
Fifty lenses are obtained from mature, New Zealand, rabbits and are immediately frozen on dry ice. Aldose reductase is isolated by homogenizing the lens in 3 volumes of water for 30 seconds in a Waring blender followed by centrifugation at 10,000 xg for 15 minutes to remove insoluble material. Saturated ammonium sulfate is added to the supernatant fluid to 40% saturation. The suspension is centrifuged after 15 minutes, and the supernatant liquid recovered. Additional protein is removed by increasing the ammonium sulfate concentration to 50%, and centrifuging the mixture. Aldose reductase is precipitated from the 50% saturated solution by the addition of powdered ammonium sulfate to 75% saturation and is recovered by centrifugation. The precipitated enzyme is assayed by following the ultraviolet absorbance at 340 millimicrons after dissolving the enzyme in 0.05 M sodium chloride. The enzyme (0.50 ml) is added to a quartz cuvette containing phosphate buffer (0.067 M, pH 6.0), NADPH (2×10^-5 M), and water to a final volume of 3 ml and the cuvette inserted in a conventional ultra-violet spectrometer. The reaction is started by the addition of substrate (glyceraldehyde) to the contents of the cuvette and is followed by the determination of loss of absorbance at 340 millimicrons for 2 minutes at 37° C. The reaction rate observed is usually linear for at least 5 minutes.
All results are shown in Tables I, II, and III as % inhibition, i.e. based on a non-inhibited control sample, no inhibition, 0%.

lens aldose reductase = settings: in vitro; cited from earlier work

CCC(=O)c1ccc2oc3ccc(C(=O)O)cc3c(=O)c2c1 [CH3 CH2 H]
inhibition at 10 µM (Aldose reductase): 54% | inhibition at 1 µM (Aldose reductase): 50% | % Inhibition (Aldose reductase; molar concentration printed (Table II)): 63%

CCCCN(C)S(=O)(=O)c1ccc2oc3ccc(C(=O)O)cc3c(=O)c2c1
inhibition at 100 µM (Aldose reductase): 95% | inhibition at 10 µM (Aldose reductase): 75% | inhibition at 1 µM (Aldose reductase): 25%

CC1OC(Oc2c(-c3ccc(O)c(O)c3)oc3cc(O)cc(O)c3c2=O)C(O)C(O)C1O (stereo not drawn) [quercetrin]
inhibition of lens aldose reductase (potency in words) (lens aldose reductase): among the most potent

CSc1cc(C(C)C)c2oc3ccc(C(=O)O)cc3c(=O)c2c1
inhibition at 100 µM (Aldose reductase): 97% | inhibition at 10 µM (Aldose reductase): 67% | inhibition at 1 µM (Aldose reductase): 17%

CC(C)CCOc1cc([S+](C)[O-])cc2c(=O)c3cc(C(=O)O)ccc3oc12 (stereo not drawn)
inhibition at 100 µM (Aldose reductase): 90% | inhibition at 10 µM (Aldose reductase): 65% | inhibition at 1 µM (Aldose reductase): 25%

CCCCCOc1cc([S+](C)[O-])cc2c(=O)c3cc(C(=O)O)ccc3oc12 (stereo not drawn) [CH3 1 n-C5 H11 O]
inhibition at 100 µM (Aldose reductase): 95% | inhibition at 10 µM (Aldose reductase): 70% | inhibition at 1 µM (Aldose reductase): 35%

CC1OC(Oc2c(-c3cc(O)c(O)c(O)c3)oc3cc(O)cc(O)c3c2=O)C(O)C(O)C1O (stereo not drawn) [myrecetrin]
inhibition of lens aldose reductase (potency in words) (lens aldose reductase): among the most potent

CSc1cc(OC(C)C)cc2c(=O)c3cc(C(=O)O)ccc3oc12
inhibition at 100 µM (Aldose reductase): 85% | inhibition at 10 µM (Aldose reductase): 60% | inhibition at 1 µM (Aldose reductase): 30%

CC(C)Oc1ccc2oc3ccc(C(=O)O)cc3c(=O)c2c1
inhibition at 100 µM (Aldose reductase): 89% | inhibition at 10 µM (Aldose reductase): 73% | inhibition at 1 µM (Aldose reductase): 3%

O=c1c(O)c(-c2ccc(O)c(O)c2)oc2cc(O)cc(O)c12 [quercetin]
inhibition of lens aldose reductase (potency in words) (lens aldose reductase): among the most potent

CC(C)N(C)S(=O)(=O)c1ccc2oc3ccc(C(=O)O)cc3c(=O)c2c1
inhibition at 100 µM (Aldose reductase): 89% | inhibition at 10 µM (Aldose reductase): 69% | inhibition at 1 µM (Aldose reductase): 17%

COc1cc(OC)c2oc3ccc(C(=O)O)cc3c(=O)c2c1 [CH3 O CH3 O]
inhibition at 10 µM (Aldose reductase): 39% | inhibition at 1 µM (Aldose reductase): 25%

O=C(O)c1ccc2oc3ccc(S(=O)(=O)O)cc3c(=O)c2c1 [H 3 H]
inhibition at 100 µM (Aldose reductase): 70% | inhibition at 10 µM (Aldose reductase): 43%

CSc1cc(OC(C)C)c2oc3ccc(C(=O)O)cc3c(=O)c2c1
inhibition at 100 µM (Aldose reductase): 85% | inhibition at 10 µM (Aldose reductase): 67% | inhibition at 1 µM (Aldose reductase): 17%

CCCCCCCCOc1cc([S+](C)[O-])cc2c(=O)c3cc(C(=O)O)ccc3oc12 (stereo not drawn) [CH3 1 n-C8 H11 O]
inhibition at 100 µM (Aldose reductase): 96% | inhibition at 10 µM (Aldose reductase): 83% | inhibition at 1 µM (Aldose reductase): 42%

COc1cccc2c(=O)c3cc(C(=O)O)ccc3oc12 [H CH3 O]
inhibition at 100 µM (Aldose reductase): 78% | inhibition at 10 µM (Aldose reductase): 50% | inhibition at 1 µM (Aldose reductase): 28%

COc1ccc2oc3ccc(C(=O)O)cc3c(=O)c2c1 [CH3 O H]
inhibition at 100 µM (Aldose reductase): 81% | inhibition at 10 µM (Aldose reductase): 39% | inhibition at 1 µM (Aldose reductase): 17%

O=C(O)c1ccc2oc3ccc(S(=O)(=O)CCO)cc3c(=O)c2c1 [HO(CH2)2 2 H, 7-(2-hydroxyethylsulfonyl)xanthone-2-carboxylic acid]
inhibition at 10 µM (Aldose reductase): 83%

C[S+]([O-])c1cc(S(C)(=O)=O)cc2c(=O)c3cc(C(=O)O)ccc3oc12 (stereo not drawn) [CH3 2 CH3 SO]
inhibition at 10 µM (Aldose reductase): 50%

O=C(O)c1ccc2oc3ccc(S(=O)(=O)N(CCO)CCO)cc3c(=O)c2c1 [(HOCH2 CH2)2 N 2 H]
inhibition at 10 µM (Aldose reductase): 67%

O=C(O)c1ccc2oc3ccc(OCC(O)CO)cc3c(=O)c2c1 (stereo not drawn)
inhibition at 10 µM (Aldose reductase): 81% | inhibition at 1 µM (Aldose reductase): 54%
